From the kinase profiling compilation of Christmann-Franck et al. (2016)

What was measured:
Experiment in all cases: radiometric filter-binding kinase assay, Kinaseprofiler
[1] = tested on: SGK1 (human), O00141 [S422D]; settings: ATP 90 µM
PAK4 (human) = PAK4 (human) (UniProt O96013); settings: ATP 10 µM
[2] = target: CSNK2A1 CSNK2B CSNK2A2 (human) (UniProt P19784+P68400+P67870); settings: ATP 15 µM
[3] = tested on: AXL (human), P30530 [Q764R]; settings: ATP 90 µM
[4] = tested on: BRSK2 (human), Q8IWQ3 [S251I]; settings: ATP 70 µM
TBK1 (human) = TBK1 (human) (UniProt Q9UHD2); settings: ATP 155 µM
PDGFRB (human) = PDGFRB (human) (UniProt P09619); settings: ATP 200 µM
NEK6 (human) = NEK6 (human) (UniProt Q9HC98); settings: ATP 45 µM
EPHB3 (human) = EPHB3 (human) (UniProt P54753); settings: ATP 90 µM
MAPK3 (human) = MAPK3 (human) (UniProt P27361); settings: ATP 70 µM
RPS6KA1 KD1 KD2 (human) = RPS6KA1 KD1 KD2 (human) (UniProt Q15418); settings: ATP 45 µM
FER (human) = FER (human) (UniProt P16591); settings: ATP 70 µM
PAK7 (human) = PAK7 (human) (UniProt Q9P286); settings: ATP 15 µM
TLK2 (human) = TLK2 (human) (UniProt Q86UE8); settings: ATP 10 µM
CLK2 (human) = CLK2 (human) (UniProt P49760); settings: ATP 15 µM
TAOK2 (human) = TAOK2 (human) (UniProt Q9UL54); settings: ATP 15 µM
PAK6 (human) = PAK6 (human) (UniProt Q9NQU5); settings: ATP 10 µM
MAPK11 (human) = MAPK11 (human) (UniProt Q15759); settings: ATP 45 µM
CSNK1D (rat) = settings: accession and sequence are those of the human protein
MAP3K5 (human) = MAP3K5 (human) (UniProt Q99683); settings: ATP 200 µM
MYLK (human) = MYLK (human) (UniProt Q15746); settings: ATP 70 µM
PRKCI (human) = PRKCI (human) (UniProt P41743); settings: ATP 155 µM
EPHA8 (human) = EPHA8 (human) (UniProt P29322); settings: ATP 200 µM
INSR (human) = INSR (human) (UniProt P06213)
SRPK3 (human) = SRPK3 (human) (UniProt Q9UPE1); settings: ATP 15 µM
ACVR1B (human) = ACVR1B (human) (UniProt P36896); settings: ATP 10 µM
NLK (human) = NLK (human) (UniProt Q9UBE8); settings: ATP 200 µM
PASK (human) = PASK (human) (UniProt Q96RG2); settings: ATP 15 µM
DAPK2 (human) = DAPK2 (human) (UniProt Q9UIK4); settings: ATP 10 µM
TNK2 (human) = TNK2 (human) (UniProt Q07912); settings: ATP 70 µM
MAP2K7 (human) = MAP2K7 (human) (UniProt O14733); settings: ATP 10 µM
MAPKAPK3 (human) = MAPKAPK3 (human) (UniProt Q16644); settings: ATP 90 µM

Sequence of INSR (human) (P06213 whole entry, looked up): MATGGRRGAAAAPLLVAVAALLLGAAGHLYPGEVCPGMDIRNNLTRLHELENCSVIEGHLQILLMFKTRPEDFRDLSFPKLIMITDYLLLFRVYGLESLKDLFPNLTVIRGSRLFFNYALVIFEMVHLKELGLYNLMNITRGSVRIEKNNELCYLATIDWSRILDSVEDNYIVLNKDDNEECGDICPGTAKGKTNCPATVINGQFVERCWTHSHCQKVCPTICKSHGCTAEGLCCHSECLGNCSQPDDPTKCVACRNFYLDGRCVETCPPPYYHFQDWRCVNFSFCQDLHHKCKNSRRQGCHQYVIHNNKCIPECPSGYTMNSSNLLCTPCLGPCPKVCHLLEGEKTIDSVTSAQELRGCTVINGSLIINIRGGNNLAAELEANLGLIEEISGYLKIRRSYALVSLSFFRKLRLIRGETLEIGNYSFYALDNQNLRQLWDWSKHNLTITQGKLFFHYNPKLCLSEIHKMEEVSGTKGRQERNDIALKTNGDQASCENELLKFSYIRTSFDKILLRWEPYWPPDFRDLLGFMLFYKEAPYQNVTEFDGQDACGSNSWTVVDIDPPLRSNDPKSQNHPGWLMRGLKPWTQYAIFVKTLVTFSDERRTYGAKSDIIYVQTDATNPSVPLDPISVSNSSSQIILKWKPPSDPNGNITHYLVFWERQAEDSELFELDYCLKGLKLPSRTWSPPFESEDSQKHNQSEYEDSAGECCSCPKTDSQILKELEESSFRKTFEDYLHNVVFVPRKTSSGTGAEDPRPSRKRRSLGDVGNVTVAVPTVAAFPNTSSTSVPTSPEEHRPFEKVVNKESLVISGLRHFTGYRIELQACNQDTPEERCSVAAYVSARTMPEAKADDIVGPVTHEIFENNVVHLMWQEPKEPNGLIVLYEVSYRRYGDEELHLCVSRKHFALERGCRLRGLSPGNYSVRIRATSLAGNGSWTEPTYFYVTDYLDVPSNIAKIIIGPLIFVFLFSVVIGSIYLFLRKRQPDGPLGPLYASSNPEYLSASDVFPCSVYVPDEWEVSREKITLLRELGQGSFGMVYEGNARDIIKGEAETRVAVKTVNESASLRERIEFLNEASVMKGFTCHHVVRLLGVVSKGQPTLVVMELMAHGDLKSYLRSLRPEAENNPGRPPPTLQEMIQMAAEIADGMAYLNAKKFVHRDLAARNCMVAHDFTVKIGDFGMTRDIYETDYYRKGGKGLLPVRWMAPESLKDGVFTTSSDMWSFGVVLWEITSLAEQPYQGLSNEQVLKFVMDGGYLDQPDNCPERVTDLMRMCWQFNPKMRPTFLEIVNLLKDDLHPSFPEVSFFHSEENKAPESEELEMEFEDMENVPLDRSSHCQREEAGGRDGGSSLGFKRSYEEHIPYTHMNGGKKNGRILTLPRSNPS
Sequence of MAPK11 (human) (Q15759 whole entry, looked up): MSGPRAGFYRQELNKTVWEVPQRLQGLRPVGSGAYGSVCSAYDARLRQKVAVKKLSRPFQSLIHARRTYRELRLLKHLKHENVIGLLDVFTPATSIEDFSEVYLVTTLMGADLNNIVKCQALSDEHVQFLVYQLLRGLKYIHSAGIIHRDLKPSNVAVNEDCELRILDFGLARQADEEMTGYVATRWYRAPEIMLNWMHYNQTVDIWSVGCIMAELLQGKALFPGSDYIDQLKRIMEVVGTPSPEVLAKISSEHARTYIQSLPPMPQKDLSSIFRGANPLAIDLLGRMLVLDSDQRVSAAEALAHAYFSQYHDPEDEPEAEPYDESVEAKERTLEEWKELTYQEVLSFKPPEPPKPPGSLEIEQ
Sequence of NEK6 (human) (Q9HC98 whole entry, looked up): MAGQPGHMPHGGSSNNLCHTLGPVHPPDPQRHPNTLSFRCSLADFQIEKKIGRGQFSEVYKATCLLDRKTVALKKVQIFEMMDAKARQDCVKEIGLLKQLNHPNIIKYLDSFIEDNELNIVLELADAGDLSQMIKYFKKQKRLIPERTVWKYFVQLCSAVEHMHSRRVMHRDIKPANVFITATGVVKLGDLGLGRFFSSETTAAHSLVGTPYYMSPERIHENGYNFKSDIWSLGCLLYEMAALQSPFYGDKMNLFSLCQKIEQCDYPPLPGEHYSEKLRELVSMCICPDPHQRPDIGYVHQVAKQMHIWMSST
Sequence of NLK (human) (Q9UBE8 whole entry, looked up): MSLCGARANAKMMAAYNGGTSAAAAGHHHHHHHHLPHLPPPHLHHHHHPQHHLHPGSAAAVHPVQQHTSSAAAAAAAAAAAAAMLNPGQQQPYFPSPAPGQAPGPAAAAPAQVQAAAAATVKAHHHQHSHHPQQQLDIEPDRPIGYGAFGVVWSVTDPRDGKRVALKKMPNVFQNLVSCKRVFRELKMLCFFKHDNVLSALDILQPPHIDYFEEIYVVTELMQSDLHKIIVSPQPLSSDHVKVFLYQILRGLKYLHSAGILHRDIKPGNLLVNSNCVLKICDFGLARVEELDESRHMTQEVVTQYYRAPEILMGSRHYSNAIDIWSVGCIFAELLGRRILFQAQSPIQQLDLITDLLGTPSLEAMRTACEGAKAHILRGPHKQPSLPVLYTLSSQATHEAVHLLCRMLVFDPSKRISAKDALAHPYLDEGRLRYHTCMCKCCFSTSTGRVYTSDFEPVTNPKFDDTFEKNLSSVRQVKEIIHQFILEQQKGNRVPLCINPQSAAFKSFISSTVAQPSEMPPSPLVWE
Sequence of FER (human) (P16591 whole entry, looked up): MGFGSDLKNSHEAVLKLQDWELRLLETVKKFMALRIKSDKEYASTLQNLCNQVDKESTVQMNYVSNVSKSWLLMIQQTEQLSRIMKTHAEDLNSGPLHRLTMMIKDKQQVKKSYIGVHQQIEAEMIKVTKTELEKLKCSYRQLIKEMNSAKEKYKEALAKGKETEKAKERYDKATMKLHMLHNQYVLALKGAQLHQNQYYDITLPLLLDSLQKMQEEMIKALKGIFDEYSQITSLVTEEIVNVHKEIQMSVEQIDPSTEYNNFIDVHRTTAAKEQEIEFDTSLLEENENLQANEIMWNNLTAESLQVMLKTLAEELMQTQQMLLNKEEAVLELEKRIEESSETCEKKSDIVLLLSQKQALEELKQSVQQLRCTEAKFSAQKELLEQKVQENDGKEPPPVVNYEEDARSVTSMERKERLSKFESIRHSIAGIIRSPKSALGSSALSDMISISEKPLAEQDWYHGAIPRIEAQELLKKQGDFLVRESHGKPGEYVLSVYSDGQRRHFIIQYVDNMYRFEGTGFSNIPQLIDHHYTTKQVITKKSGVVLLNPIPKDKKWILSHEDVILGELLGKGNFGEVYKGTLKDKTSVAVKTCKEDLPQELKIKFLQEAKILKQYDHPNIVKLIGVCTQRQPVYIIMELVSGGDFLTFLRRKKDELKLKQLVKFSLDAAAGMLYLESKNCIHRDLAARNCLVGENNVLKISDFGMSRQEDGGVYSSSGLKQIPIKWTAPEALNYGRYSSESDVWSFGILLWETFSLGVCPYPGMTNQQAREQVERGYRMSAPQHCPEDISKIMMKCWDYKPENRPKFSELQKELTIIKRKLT
Sequence of AXL (human), P30530 [Q764R] (P30530 whole entry Q764R, looked up): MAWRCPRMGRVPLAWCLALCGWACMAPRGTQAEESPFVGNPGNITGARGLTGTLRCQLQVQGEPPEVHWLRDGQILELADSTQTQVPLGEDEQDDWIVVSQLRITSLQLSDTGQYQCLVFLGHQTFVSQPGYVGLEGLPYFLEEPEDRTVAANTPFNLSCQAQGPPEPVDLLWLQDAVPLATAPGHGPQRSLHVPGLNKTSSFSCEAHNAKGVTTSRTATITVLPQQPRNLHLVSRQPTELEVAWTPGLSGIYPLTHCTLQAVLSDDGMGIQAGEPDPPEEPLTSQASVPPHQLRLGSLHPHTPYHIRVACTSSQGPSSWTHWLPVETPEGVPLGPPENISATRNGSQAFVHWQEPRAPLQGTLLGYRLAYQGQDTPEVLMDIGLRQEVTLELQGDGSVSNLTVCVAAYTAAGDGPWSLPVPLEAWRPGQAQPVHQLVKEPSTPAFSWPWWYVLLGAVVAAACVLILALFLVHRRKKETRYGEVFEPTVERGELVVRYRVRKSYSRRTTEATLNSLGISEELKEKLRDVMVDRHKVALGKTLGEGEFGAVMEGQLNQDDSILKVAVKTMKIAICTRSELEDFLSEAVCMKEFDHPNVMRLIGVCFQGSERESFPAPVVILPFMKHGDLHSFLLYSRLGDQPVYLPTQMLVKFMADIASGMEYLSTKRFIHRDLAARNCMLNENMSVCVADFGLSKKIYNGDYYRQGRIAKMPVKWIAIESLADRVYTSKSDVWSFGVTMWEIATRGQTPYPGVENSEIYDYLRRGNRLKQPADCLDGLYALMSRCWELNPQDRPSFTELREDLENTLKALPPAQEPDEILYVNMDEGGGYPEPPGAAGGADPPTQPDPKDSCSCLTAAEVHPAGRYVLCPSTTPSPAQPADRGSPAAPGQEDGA
Sequence of PRKCI (human) (P41743 whole entry, looked up): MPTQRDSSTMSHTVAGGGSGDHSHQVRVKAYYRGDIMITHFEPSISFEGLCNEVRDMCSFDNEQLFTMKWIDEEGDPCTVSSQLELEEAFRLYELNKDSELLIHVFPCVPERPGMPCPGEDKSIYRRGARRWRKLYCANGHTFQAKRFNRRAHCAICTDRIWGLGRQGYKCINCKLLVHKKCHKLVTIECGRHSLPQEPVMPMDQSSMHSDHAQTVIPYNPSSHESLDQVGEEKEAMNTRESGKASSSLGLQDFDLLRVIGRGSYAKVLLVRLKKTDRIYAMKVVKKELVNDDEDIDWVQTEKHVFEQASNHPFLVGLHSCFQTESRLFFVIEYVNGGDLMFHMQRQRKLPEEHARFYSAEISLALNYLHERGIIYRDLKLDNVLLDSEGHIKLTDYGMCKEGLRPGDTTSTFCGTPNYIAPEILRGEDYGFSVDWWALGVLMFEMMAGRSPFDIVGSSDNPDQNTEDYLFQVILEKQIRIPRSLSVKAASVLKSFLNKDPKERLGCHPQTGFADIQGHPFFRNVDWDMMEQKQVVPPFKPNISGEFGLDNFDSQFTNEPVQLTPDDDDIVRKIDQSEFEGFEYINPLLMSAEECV

O=C1Nc2ccccc2/C1=C1\Nc2ccccc2\C1=N/O
residual activity ([1]; compound 1.0 µM): 59% | residual activity ([1]; compound 10.0 µM): 28% | residual activity (PAK4 (human); compound 1.0 µM): 55% | residual activity (PAK4 (human); compound 10.0 µM): 14% | residual activity ([2]; compound 1.0 µM): 112% | residual activity ([2]; compound 10.0 µM): 78% | residual activity ([3]; compound 1.0 µM): 17% | residual activity ([3]; compound 10.0 µM): 8% | residual activity ([4]; compound 1.0 µM): 10% | residual activity ([4]; compound 10.0 µM): 5% | residual activity (TBK1 (human); compound 1.0 µM): 9% | residual activity (TBK1 (human); compound 10.0 µM): 1% | residual activity (PDGFRB (human); compound 1.0 µM): 84% | residual activity (PDGFRB (human); compound 10.0 µM): 26% | residual activity (NEK6 (human); compound 1.0 µM): 91% | residual activity (NEK6 (human); compound 10.0 µM): 103% | residual activity (EPHB3 (human); compound 1.0 µM): 105% | residual activity (EPHB3 (human); compound 10.0 µM): 103% | residual activity (MAPK3 (human); compound 1.0 µM): 114% | residual activity (MAPK3 (human); compound 10.0 µM): 101% | residual activity (RPS6KA1 KD1 KD2 (human); compound 1.0 µM): 40% | residual activity (RPS6KA1 KD1 KD2 (human); compound 10.0 µM): 6% | residual activity (FER (human); compound 1.0 µM): 70% | residual activity (FER (human); compound 10.0 µM): 53% | residual activity (PAK7 (human); compound 1.0 µM): 64% | residual activity (PAK7 (human); compound 10.0 µM): 33% | residual activity (TLK2 (human); compound 1.0 µM): 60% | residual activity (TLK2 (human); compound 10.0 µM): 14% | residual activity (CLK2 (human); compound 1.0 µM): 14% | residual activity (CLK2 (human); compound 10.0 µM): 4% | residual activity (TAOK2 (human); compound 1.0 µM): 75% | residual activity (TAOK2 (human); compound 10.0 µM): 26% | residual activity (PAK6 (human); compound 1.0 µM): 63% | residual activity (PAK6 (human); compound 10.0 µM): 37% | residual activity (MAPK11 (human); compound 1.0 µM): 101% | residual activity (MAPK11 (human); compound 10.0 µM): 90% | residual activity (CSNK1D (rat); compound 1.0 µM): 14% | residual activity (CSNK1D (rat); compound 10.0 µM): 4% | residual activity (MAP3K5 (human); compound 1.0 µM): 52% | residual activity (MAP3K5 (human); compound 10.0 µM): 7% | residual activity (MYLK (human); compound 1.0 µM): 46% | residual activity (MYLK (human); compound 10.0 µM): 13% | residual activity (PRKCI (human); compound 1.0 µM): 96% | residual activity (PRKCI (human); compound 10.0 µM): 105% | residual activity (EPHA8 (human); compound 1.0 µM): 84% | residual activity (EPHA8 (human); compound 10.0 µM): 43% | residual activity (INSR (human); compound 1.0 µM, ATP 45 µM): 35% | residual activity (INSR (human); compound 1.0 µM, ATP 200 µM): 17% | residual activity (INSR (human); compound 10.0 µM, ATP 45 µM): 19% | residual activity (INSR (human); compound 10.0 µM, ATP 200 µM): 10% | residual activity (SRPK3 (human); compound 1.0 µM): 85% | residual activity (SRPK3 (human); compound 10.0 µM): 46% | residual activity (ACVR1B (human); compound 1.0 µM): 104% | residual activity (ACVR1B (human); compound 10.0 µM): 72% | residual activity (NLK (human); compound 1.0 µM): 82% | residual activity (NLK (human); compound 10.0 µM): 67% | residual activity (PASK (human); compound 1.0 µM): 112% | residual activity (PASK (human); compound 10.0 µM): 76% | residual activity (DAPK2 (human); compound 1.0 µM): 73% | residual activity (DAPK2 (human); compound 10.0 µM): 23% | residual activity (TNK2 (human); compound 1.0 µM): 34% | residual activity (TNK2 (human); compound 10.0 µM): 4% | residual activity (MAP2K7 (human); compound 1.0 µM): 52% | residual activity (MAP2K7 (human); compound 10.0 µM): 7% | residual activity (MAPKAPK3 (human); compound 1.0 µM): 117% | residual activity (MAPKAPK3 (human); compound 10.0 µM): 88%
